Earlier results as cited in EP0225997A2, “Use of urea derivatives for preparing a pharmaceutical composition for the treatment of a virus-induced disease” (Die Deutsches Primatenzentrum GmbH, priority 1985, dated 1987).

System: HTLV-III
Conditions: Mitsuya et al. Science, 226 page 172-174, 1984

## Cc1ccc(C(=O)Nc2ccc(S(=O)(=O)O)c3cc(S(=O)(=O)O)cc(S(=O)(=O)O)c23)cc1NC(=O)c1cccc(NC(=O)Nc2cccc(C(=O)Nc3cc(C(=O)Nc4ccc(S(=O)(=O)O)c5cc(S(=O)(=O)O)cc(S(=O)(=O)O)c45)ccc3C)c2)c1 [suramin]
  HTLV-III replications in culture: reduce HTLV-III replications in culture
